Data published in PubChem BioAssay (NCI).
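A five-concentration, 48-hour dose response in 96-well plates underlies each endpoint, interpolated linearly between surrounding concentrations. GI50 marks 50% less growth. Definition used: TGI = concentration required for complete inhibition of growth.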

Columns and labels:
Test in all cases: NCI-60 cell line screen, 48 h
OVCAR-5 ovarian = tested on: OVCAR-5 ovarian
MCF7 breast = tested on: MCF7 breast
T-47D breast = tested on: T-47D breast
KM12 colon = tested on: KM12 colon
786-0 renal = tested on: 786-0 renal
SK-MEL-28 melanoma = tested on: SK-MEL-28 melanoma
HS 578T breast = tested on: HS 578T breast
MOLT-4 leukemia = tested on: MOLT-4 leukemia
NCI/ADR-RES ovarian = tested on: NCI/ADR-RES ovarian
OVCAR-4 ovarian = tested on: OVCAR-4 ovarian
IGROV1 ovarian = tested on: IGROV1 ovarian
TK-10 renal = tested on: TK-10 renal
A498 renal = tested on: A498 renal
EKVX NSCLC = tested on: EKVX NSCLC
SK-OV-3 ovarian = tested on: SK-OV-3 ovarian
HCT-15 colon = tested on: HCT-15 colon
SK-MEL-5 melanoma = tested on: SK-MEL-5 melanoma
U251 CNS = tested on: U251 CNS
UACC-257 melanoma = tested on: UACC-257 melanoma
K-562 leukemia = tested on: K-562 leukemia
SF-295 CNS = tested on: SF-295 CNS
ACHN renal = tested on: ACHN renal
MDA-MB-231 breast = tested on: MDA-MB-231 breast
CAKI-1 renal = tested on: CAKI-1 renal
LOX IMVI melanoma = tested on: LOX IMVI melanoma
OVCAR-3 ovarian = tested on: OVCAR-3 ovarian
SF-539 CNS = tested on: SF-539 CNS
SR leukemia = tested on: SR leukemia
COLO 205 colon = tested on: COLO 205 colon
NCI-H23 lung = tested on: NCI-H23 lung
A549 NSCLC = tested on: A549 NSCLC
PC-3 prostate = tested on: PC-3 prostate
SNB-19 CNS = tested on: SNB-19 CNS
DU-145 prostate = tested on: DU-145 prostate
HOP-62 NSCLC = tested on: HOP-62 NSCLC
NCI-H226 lung = tested on: NCI-H226 lung
NCI-H460 lung = tested on: NCI-H460 lung
SK-MEL-2 melanoma = tested on: SK-MEL-2 melanoma
SN12C renal = tested on: SN12C renal
SW-620 colon = tested on: SW-620 colon
UO-31 renal = tested on: UO-31 renal
SF-268 CNS = tested on: SF-268 CNS
CCRF-CEM leukemia = tested on: CCRF-CEM leukemia
OVCAR-8 ovarian = tested on: OVCAR-8 ovarian
HCC-2998 colon = tested on: HCC-2998 colon
BT-549 breast = tested on: BT-549 breast
UACC-62 melanoma = tested on: UACC-62 melanoma
MDA-MB-435 = tested on: MDA-MB-435
M14 melanoma = tested on: M14 melanoma
HCT-116 colon = tested on: HCT-116 colon
SNB-75 CNS = tested on: SNB-75 CNS
HOP-92 NSCLC = tested on: HOP-92 NSCLC
NCI-H522 lung = tested on: NCI-H522 lung
HT29 colon = tested on: HT29 colon
RPMI-8226 leukemia = tested on: RPMI-8226 leukemia
MALME-3M melanoma = tested on: MALME-3M melanoma
HL-60(TB) leukemia = tested on: HL-60(TB) leukemia

COc1cc(O)c2c3c(ccnc13)-c1ccccc1N2
GI50 (OVCAR-5 ovarian): 25.3 µM
TGI (OVCAR-5 ovarian): > 100 µM
GI50 (MCF7 breast): 2.01 µM
TGI (MCF7 breast): 8.59 µM
GI50 (T-47D breast): 8.32 µM
TGI (T-47D breast): > 100 µM
GI50 (KM12 colon): 5.06 µM
TGI (KM12 colon): 64.5 µM
GI50 (786-0 renal): 12.3 µM
TGI (786-0 renal): > 100 µM
GI50 (SK-MEL-28 melanoma): 21.1 µM
TGI (SK-MEL-28 melanoma): 72.8 µM
GI50 (HS 578T breast): 15.5 µM
TGI (HS 578T breast): 92.8 µM
GI50 (MOLT-4 leukemia): 21.2 µM
TGI (MOLT-4 leukemia): > 100 µM
GI50 (NCI/ADR-RES ovarian): 9.25 µM
TGI (NCI/ADR-RES ovarian): 92.7 µM
GI50 (OVCAR-4 ovarian): 2.85 µM
TGI (OVCAR-4 ovarian): 25.1 µM
GI50 (IGROV1 ovarian): 10.8 µM
TGI (IGROV1 ovarian): > 100 µM
GI50 (TK-10 renal): 33.2 µM
TGI (TK-10 renal): 85.9 µM
GI50 (A498 renal): 22.4 µM
TGI (A498 renal): 42.2 µM
GI50 (EKVX NSCLC): 14.9 µM
TGI (EKVX NSCLC): 51.3 µM
GI50 (SK-OV-3 ovarian): 28.5 µM
TGI (SK-OV-3 ovarian): > 100 µM
GI50 (HCT-15 colon): 2.35 µM
TGI (HCT-15 colon): 29.1 µM
GI50 (SK-MEL-5 melanoma): 2.73 µM
TGI (SK-MEL-5 melanoma): 12.5 µM
GI50 (U251 CNS): 6.07 µM
TGI (U251 CNS): 79.6 µM
GI50 (UACC-257 melanoma): 5.71 µM
TGI (UACC-257 melanoma): > 100 µM
GI50 (K-562 leukemia): 28.1 µM
TGI (K-562 leukemia): > 100 µM
GI50 (SF-295 CNS): 5.9 µM
TGI (SF-295 CNS): 53.7 µM
GI50 (ACHN renal): 3.02 µM
TGI (ACHN renal): 77.9 µM
GI50 (MDA-MB-231 breast): 5.19 µM
TGI (MDA-MB-231 breast): 71.9 µM
GI50 (CAKI-1 renal): 12.8 µM
TGI (CAKI-1 renal): 47.4 µM
GI50 (LOX IMVI melanoma): 3.2 µM
TGI (LOX IMVI melanoma): 31.7 µM
GI50 (OVCAR-3 ovarian): 2.01 µM
TGI (OVCAR-3 ovarian): 5.96 µM
GI50 (SF-539 CNS): 3.33 µM
TGI (SF-539 CNS): 10.8 µM
GI50 (SR leukemia): 0.488 µM
TGI (SR leukemia): > 100 µM
GI50 (COLO 205 colon): 6.23 µM
TGI (COLO 205 colon): > 100 µM
GI50 (NCI-H23 lung): 20.5 µM
TGI (NCI-H23 lung): > 100 µM
GI50 (A549 NSCLC): 2.37 µM
TGI (A549 NSCLC): > 100 µM
GI50 (PC-3 prostate): 5.61 µM
TGI (PC-3 prostate): > 100 µM
GI50 (SNB-19 CNS): 4.86 µM
TGI (SNB-19 CNS): 49.2 µM
GI50 (DU-145 prostate): 2.77 µM
TGI (DU-145 prostate): 35.7 µM
GI50 (HOP-62 NSCLC): 10.4 µM
TGI (HOP-62 NSCLC): > 100 µM
GI50 (NCI-H226 lung): 18.6 µM
TGI (NCI-H226 lung): 91.9 µM
GI50 (NCI-H460 lung): 2.69 µM
TGI (NCI-H460 lung): > 100 µM
GI50 (SK-MEL-2 melanoma): 21.8 µM
TGI (SK-MEL-2 melanoma): 61.5 µM
GI50 (SN12C renal): 5.42 µM
TGI (SN12C renal): 20 µM
GI50 (SW-620 colon): 2.63 µM
TGI (SW-620 colon): > 100 µM
GI50 (UO-31 renal): 18.8 µM
TGI (UO-31 renal): > 100 µM
GI50 (SF-268 CNS): 8.63 µM
TGI (SF-268 CNS): 98.9 µM
GI50 (CCRF-CEM leukemia): 7.36 µM
TGI (CCRF-CEM leukemia): > 100 µM
GI50 (OVCAR-8 ovarian): 4.87 µM
TGI (OVCAR-8 ovarian): > 100 µM
GI50 (HCC-2998 colon): 4.39 µM
TGI (HCC-2998 colon): 12.3 µM
GI50 (BT-549 breast): 15.4 µM
TGI (BT-549 breast): 60.2 µM
GI50 (UACC-62 melanoma): 4.33 µM
TGI (UACC-62 melanoma): 17.1 µM
GI50 (MDA-MB-435): 1.9 µM
TGI (MDA-MB-435): 3.66 µM
GI50 (M14 melanoma): 1.69 µM
TGI (M14 melanoma): 7.95 µM
GI50 (HCT-116 colon): 2.4 µM
TGI (HCT-116 colon): > 100 µM
GI50 (SNB-75 CNS): 17 µM
TGI (SNB-75 CNS): > 100 µM
GI50 (HOP-92 NSCLC): 24.7 µM
TGI (HOP-92 NSCLC): > 100 µM
GI50 (NCI-H522 lung): 9.34 µM
TGI (NCI-H522 lung): 60 µM
GI50 (HT29 colon): 5.11 µM
TGI (HT29 colon): > 100 µM
GI50 (RPMI-8226 leukemia): 3.93 µM
TGI (RPMI-8226 leukemia): > 100 µM
GI50 (MALME-3M melanoma): 14.9 µM
TGI (MALME-3M melanoma): 46.5 µM
GI50 (HL-60(TB) leukemia): 21.8 µM
TGI (HL-60(TB) leukemia): > 100 µM
